Results: PubChem BioAssay (NCI)
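Test compounds were applied to cells in 96-well plates for 48 hours at 5 doses. GI50 is the concentration that inhibits growth by half. Definition used: TGI = concentration required for complete inhibition of growth.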

Tests used:
Assay in all cases: NCI anticancer screen, dose series, 48 h
CAKI-1 renal = test system: CAKI-1 renal
KM12 colon = test system: KM12 colon
ACHN renal = test system: ACHN renal
UACC-62 melanoma = test system: UACC-62 melanoma
NCI-H460 lung = test system: NCI-H460 lung
SW-620 colon = test system: SW-620 colon
MALME-3M melanoma = test system: MALME-3M melanoma
RPMI-8226 leukemia = test system: RPMI-8226 leukemia
HCT-15 colon = test system: HCT-15 colon
OVCAR-3 ovarian = test system: OVCAR-3 ovarian

Structure (SMILES) | GI50 (CAKI-1 renal) [µM] | TGI (CAKI-1 renal) [µM] | GI50 (KM12 colon) [µM] | TGI (KM12 colon) [µM] | GI50 (ACHN renal) [µM] | TGI (ACHN renal) [µM] | GI50 (UACC-62 melanoma) [µM] | TGI (UACC-62 melanoma) [µM] | GI50 (NCI-H460 lung) [µM] | TGI (NCI-H460 lung) [µM] | GI50 (SW-620 colon) [µM] | TGI (SW-620 colon) [µM] | GI50 (MALME-3M melanoma) [µM] | TGI (MALME-3M melanoma) [µM] | GI50 (RPMI-8226 leukemia) [µM] | TGI (RPMI-8226 leukemia) [µM] | GI50 (HCT-15 colon) [µM] | TGI (HCT-15 colon) [µM] | GI50 (OVCAR-3 ovarian) [µM] | TGI (OVCAR-3 ovarian) [µM]
Nc1ccc(N)c2c1C(=O)c1cccc([N+](=O)[O-])c1C2=O | 0.549 | 4.07 | 4.15 | > 100 | 1.93 | > 100 | 1.2 | 5.65 | 0.206 | 1.27 | 2.41 | > 100 | 5.69 | > 100 | 2.82 | > 100 | 2.16 | > 100 | 5.19 | > 100
CS(=O)(=O)Nc1ccc(Nc2c3ccccc3nc3cc(Cl)ccc23)cc1 | 0.397 | 8.68 | 3.81 | 18.5 | 0.343 | 9.57 | 0.988 | 12.9 | 0.0962 | 11 | 0.686 | 15.4 | 1.96 | 12.3 | 2.56 | 25.6 | 1.37 | 14.2 | 7.28 | 21.5
O=C(/C=C/c1ccc(OCC(=O)N2CCN(c3ccccc3)CC2)cc1)c1ccccc1 |  | > 100 |  | > 75 |  | > 89.6 |  | > 59.7 |  | > 87 |  | > 28.4 |  | > 58.2 |  | > 27.2 |  | > 100 |  | > 100
Cc1c(C(=O)C/C(=N/NC(=O)CC#N)C(N)=O)[n+](=O)c2ccccc2n1[O-] |  | > 100 |  | > 100 |  | > 100 |  | > 100 |  | > 100 |  | 34.5 |  | > 100 |  | > 100 |  | > 100 |  | 61.8
CC(=O)Nc1ccc(C(=O)COc2cccc(/C=C3\CCc4ccccc4C3=O)c2)cc1 | 21 | 77.1 | 4.92 | 18.1 | 21.9 | 78.4 | 12.5 | 32.7 | 16.1 | 37.1 | 3.65 | 15 | 15.8 | 39.5 | 1.82 | 4.97 | 11.2 | 32 | 17.4 | 39.1
Cc1cc2c(SCc3ccccc3Cl)nc(N)nc2nc1C |  | > 100 |  | > 100 |  | > 100 |  | > 100 |  | > 100 |  | > 100 |  | > 100 |  | > 100 |  | > 100 |  | > 100
O=C(c1ccccc1)c1ccc(N2C(=O)C3C4c5ccccc5C(/C=C/C(=O)c5ccccn5)(c5ccccc54)C3C2=O)cc1 (stereo unspecified) | 8.82 | > 100 | 1.88 | 4.39 | 2.07 | 4.64 | 2.21 | 7.44 | 2.67 | 9.23 | 2.82 | > 100 | 2.33 | 6.48 | 2.49 | 53.3 | 1.69 | 4.4 | 1.83 | 3.85
COc1ccc(Cl)cc1Nc1nc(C(F)(F)F)ccc1C(=O)N/N=C/c1ccc(Cl)cc1 | 5.37 | 29.7 | 5.16 | > 100 | 6.4 | 66.2 | 8.01 | 40.9 | 1.82 | > 100 | 8.2 | > 100 | 1.36 | 9.2 | 3.5 | > 100 | 2.41 | > 100 | 0.576 | 1.66
CN(C)c1ccc(/C=C2\Cc3ccccc3C2=O)cc1Br |  | > 100 |  | > 100 |  | > 100 |  | > 100 |  | > 100 |  | > 100 |  | > 100 |  | 84.3 |  | > 100 |  | > 100
NC1=NN(c2ccccc2)C(=O)C1/C(=N\NC(=O)c1cc2ccccc2cc1O)C(=O)Nc1ccc(Cl)cc1 (stereo unspecified) |  | > 100 |  | > 100 |  | > 100 |  | 66.2 |  | > 100 |  | > 100 |  | > 100 |  | 96.1 |  | > 100 |  | > 100
COc1ccc(C[C@H](N)C(=O)N[C@@H]2[C@@H](CO)OC(n3cnc4c(N(C)C)ncnc43)[C@@H]2O)cc1 (stereo partly specified) | 4.44 | 16.6 | 0.363 | 1.08 |  | 3.19 | 0.404 | 1.06 |  | 0.889 |  | 0.792 | 0.637 | 1.39 | 0.292 | 2.04 | 6.63 | 29.9 |  | 0.535
CC(C)c1nc(Cl)c(Cl)c(Cl)n1 |  | 11.8 |  | 23.3 |  | 2.51 |  | 23.1 |  | 48.4 |  | 15.6 |  | 19 |  | 14.7 |  | 17.7 |  | 8.2
CC1=CC(=O)N2[C@H](OC[C@@H]2C(C)C)O1 |  | > 100 |  | > 100 |  | > 100 |  | > 100 |  | > 100 |  | > 100 |  | > 100 |  | > 100 |  | > 100 |  | > 100
O=c1cccccc1[O-].O=c1cccccc1[O-].O=c1cccccc1[O-].[Dy+3] |  | > 100 |  | > 100 |  | > 100 |  | > 100 |  | > 100 |  | > 100 |  | > 100 |  | 76.2 |  | > 100 |  | 41.1
COc1cc2c(cc1OCCCN1CCN(CCCn3c4ccccc4c4ccccc43)CC1)N=C[C@@H]1CCCN1C2=O | 0.148 | 1.17 | 0.157 | 0.578 | 0.43 | 1.27 | 0.162 | 0.347 | 0.23 | 0.916 | 0.0254 | 0.141 | 0.102 | 0.432 | 0.0106 | 0.0483 | 0.623 | 2.15 | 0.0669 | 1.16
CC(C)(CCc1nc2ccccc2[nH]1)C(=O)O |  | > 100 |  | > 100 |  | > 100 |  | > 100 |  | > 100 |  | > 100 |  | > 100 |  | > 100 |  | > 100 |  | > 100
